Values of other authors as cited in publication PMC8348686, “The Pharmacological Profile of Second Generation Pyrovalerone Cathinones and Related Cathinone Derivative” (International Journal of Molecular Sciences, 2021).

How the values were obtained:
h5-HT2A receptor = h5-HT2A receptor (Homo sapiens, UniProt P28223); set-up: expressed in transfected cells; host or cells: HEK293 cell preparations; conditions: read-out: h5-HT2A Receptor Binding Ki ± SD; [3H]-Ketanserin; ref Simmler et al. (2013); cited from earlier work
Sequence of h5-HT2A receptor (P28223 whole entry): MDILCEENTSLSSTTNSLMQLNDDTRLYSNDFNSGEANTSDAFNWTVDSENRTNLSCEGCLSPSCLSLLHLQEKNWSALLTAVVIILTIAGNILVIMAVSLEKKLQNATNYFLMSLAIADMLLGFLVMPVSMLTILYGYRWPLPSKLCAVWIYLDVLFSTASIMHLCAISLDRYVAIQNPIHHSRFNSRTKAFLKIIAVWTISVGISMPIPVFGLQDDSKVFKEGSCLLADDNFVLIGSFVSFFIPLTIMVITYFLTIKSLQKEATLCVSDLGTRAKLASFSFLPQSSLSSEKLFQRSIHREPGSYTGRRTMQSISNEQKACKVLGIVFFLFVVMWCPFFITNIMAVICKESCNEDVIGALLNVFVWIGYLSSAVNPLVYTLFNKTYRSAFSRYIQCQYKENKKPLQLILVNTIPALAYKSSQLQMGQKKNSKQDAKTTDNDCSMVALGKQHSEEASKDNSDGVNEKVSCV

h5-HT2C receptor = target: T1, h5-HT2C receptor (Homo sapiens, UniProt P28335); conditions: read-out: h5-HT2C Receptor Binding Ki ± SD; [3H]-Mesulgerine; ref Simmler et al. (2013); cited from earlier work
T1 construct: expressed in transfected cells; host or cells: HEK293 cell preparations
T1 sequence (P28335 33-458): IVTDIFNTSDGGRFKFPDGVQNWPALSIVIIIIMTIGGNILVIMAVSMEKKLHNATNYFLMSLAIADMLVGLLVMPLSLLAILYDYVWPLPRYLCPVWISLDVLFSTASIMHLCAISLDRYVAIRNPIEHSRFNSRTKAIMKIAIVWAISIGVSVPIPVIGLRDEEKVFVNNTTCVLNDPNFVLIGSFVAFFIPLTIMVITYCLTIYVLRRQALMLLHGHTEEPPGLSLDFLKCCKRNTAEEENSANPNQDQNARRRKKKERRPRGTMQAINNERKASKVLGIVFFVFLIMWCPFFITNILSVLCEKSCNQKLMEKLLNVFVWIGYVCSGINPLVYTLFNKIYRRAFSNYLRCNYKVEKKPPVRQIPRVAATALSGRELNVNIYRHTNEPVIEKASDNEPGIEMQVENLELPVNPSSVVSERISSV

Human TAAR1 = test system: Human TAAR1; set-up: method as in Simmler et al. (2016); conditions: ref Simmler et al. (2016); read-out: Human TAAR1 Activation Potency EC50 ± SD; cited from earlier work
Rat TAAR1 = conditions: [3H]-RO5166017; ref Simmler et al. (2013); read-out: Rat TAAR1 Receptor Binding Ki ± SD; cited from earlier work
adrenergic α2A receptor = target: T2, adrenergic α2A receptor (Homo sapiens, UniProt P08913); conditions: read-out: α2A Receptor Binding Ki ± SD; [3H]-Rauwolscine; ref Simmler et al. (2013); cited from earlier work
T2 sequence (P08913 1-465): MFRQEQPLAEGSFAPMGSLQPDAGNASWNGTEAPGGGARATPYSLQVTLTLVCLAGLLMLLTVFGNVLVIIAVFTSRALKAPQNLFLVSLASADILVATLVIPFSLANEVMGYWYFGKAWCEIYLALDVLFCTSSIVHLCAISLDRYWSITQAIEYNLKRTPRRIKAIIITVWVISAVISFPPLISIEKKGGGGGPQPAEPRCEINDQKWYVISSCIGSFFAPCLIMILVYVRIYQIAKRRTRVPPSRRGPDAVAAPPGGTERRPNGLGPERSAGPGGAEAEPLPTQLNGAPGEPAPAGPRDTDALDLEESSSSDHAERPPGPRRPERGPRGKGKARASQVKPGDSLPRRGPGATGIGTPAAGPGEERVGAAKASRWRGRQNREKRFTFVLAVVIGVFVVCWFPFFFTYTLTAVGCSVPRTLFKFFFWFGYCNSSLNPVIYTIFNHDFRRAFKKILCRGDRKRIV

h5-HT2B receptor = target: T3, h5-HT2B receptor (Homo sapiens, UniProt P41595); set-up: method as in Rickli et al. (2015); conditions: read-out: h5-HT2B Activation Potency EC50 ± SD; ref Rickli et al. (2015); cited from earlier work
T3 construct: expressed in transfected cells; host or cells: HEK293
T3 sequence (P41595 whole entry): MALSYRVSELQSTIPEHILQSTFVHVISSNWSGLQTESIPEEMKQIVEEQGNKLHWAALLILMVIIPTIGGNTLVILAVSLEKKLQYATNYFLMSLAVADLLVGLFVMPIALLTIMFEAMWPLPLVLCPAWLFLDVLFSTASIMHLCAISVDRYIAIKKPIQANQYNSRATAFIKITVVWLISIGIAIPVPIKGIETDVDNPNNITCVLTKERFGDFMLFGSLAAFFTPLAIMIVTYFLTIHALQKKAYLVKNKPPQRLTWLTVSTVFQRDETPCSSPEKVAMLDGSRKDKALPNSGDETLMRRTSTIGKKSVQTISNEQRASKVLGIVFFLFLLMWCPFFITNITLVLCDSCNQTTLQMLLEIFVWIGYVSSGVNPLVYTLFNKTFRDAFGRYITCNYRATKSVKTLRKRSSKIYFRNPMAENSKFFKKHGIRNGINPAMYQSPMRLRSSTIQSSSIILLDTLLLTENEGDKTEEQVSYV

adrenergic α1A receptor = target: T4, adrenergic α1A receptor (Homo sapiens, UniProt P35348); conditions: read-out: α1A Receptor Binding Ki ± SD; [3H]-Prazosin; ref Simmler et al. (2013); cited from earlier work
T4 sequence (P35348 1-466): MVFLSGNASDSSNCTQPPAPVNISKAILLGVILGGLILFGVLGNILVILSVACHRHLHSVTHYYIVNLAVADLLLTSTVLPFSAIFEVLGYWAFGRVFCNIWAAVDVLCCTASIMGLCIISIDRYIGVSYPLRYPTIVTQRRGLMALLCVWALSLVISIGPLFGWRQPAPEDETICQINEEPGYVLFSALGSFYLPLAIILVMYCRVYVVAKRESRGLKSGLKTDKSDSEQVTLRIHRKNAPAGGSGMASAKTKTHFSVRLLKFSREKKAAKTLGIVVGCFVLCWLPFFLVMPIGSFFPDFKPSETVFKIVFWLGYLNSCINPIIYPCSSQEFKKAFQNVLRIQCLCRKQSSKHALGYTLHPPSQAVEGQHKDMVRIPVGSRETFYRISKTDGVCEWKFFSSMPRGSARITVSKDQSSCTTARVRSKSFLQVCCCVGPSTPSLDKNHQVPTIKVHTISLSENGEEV

dopaminergic D2 receptor = dopaminergic D2 receptor (Homo sapiens, UniProt P14416); conditions: read-out: D2 Receptor Binding Ki ± SD; [3H]-Spiperone; ref Simmler et al. (2013); cited from earlier work
Sequence of dopaminergic D2 receptor (P14416 whole entry): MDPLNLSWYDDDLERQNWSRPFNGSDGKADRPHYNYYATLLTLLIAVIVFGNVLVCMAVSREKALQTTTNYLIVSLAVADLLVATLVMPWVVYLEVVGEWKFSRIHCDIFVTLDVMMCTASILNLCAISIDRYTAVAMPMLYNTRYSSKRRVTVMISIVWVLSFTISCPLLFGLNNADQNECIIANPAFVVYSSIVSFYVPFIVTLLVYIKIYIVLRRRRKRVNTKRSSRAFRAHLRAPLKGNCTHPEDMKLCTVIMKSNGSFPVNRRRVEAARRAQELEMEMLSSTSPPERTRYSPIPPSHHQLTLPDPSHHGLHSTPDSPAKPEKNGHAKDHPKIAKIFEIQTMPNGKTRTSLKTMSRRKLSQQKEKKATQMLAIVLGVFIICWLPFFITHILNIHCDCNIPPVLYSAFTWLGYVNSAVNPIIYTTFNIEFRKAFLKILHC

Mouse TAAR1 = conditions: [3H]-RO5166017; ref Simmler et al. (2013); read-out: Mouse TAAR1 Receptor Binding Ki ± SD; cited from earlier work

For `CC(N)Cc1ccccc1` (stereo not drawn) [Amphetamine, amphetamine, reference compound], the Ki (h5-HT2A receptor) is given as over 13000 nM, the Ki (h5-HT2C receptor) is given as over 13000 nM and the EC50 (Human TAAR1) is given as 2800 ± 800 nM. For the same compound, the Ki (Rat TAAR1) was 230 ± 180 nM, the Ki (adrenergic α2A receptor) was 2800 ± 800 nM and the EC50 (h5-HT2B receptor) was 9400 ± 1600 nM. The Ki (adrenergic α1A receptor) was over 6000 nM, the Ki (dopaminergic D2 receptor) was over 30000 nM and the Ki (Mouse TAAR1) was 90 ± 60 nM.
